Key:
Assay type in all cases: functional
[1] = target: Vanilloid receptor (Rattus norvegicus, UniProt Q9ERZ8+Q9WUD2+O35433); assay: Effective concentration for [Ca2+] uptake into dorsal root ganglia neurones in rat cultured spinal sensory neurones
[2] = system: Mus musculus; assay: In vivo analgesic dose in mouse tail flick latency model
[3] = organism: Cavia porcellus; assay: In vitro effective dose for contraction of guinea pig ileum

SMILES | EC50 [1] [nM] | ED50 [2] [µmol/kg] | EC50 [3] [nM]
CCCCCCCCN(C)/C(S)=N/Cc1ccc(O)c(OC)c1 | 530 |  | 
CCCCCCCC/N=C(\S)NCc1ccc(O)c(OC)c1 |  | 3.2 | 
CCCCCCCCC(=O)Nc1ccc(O)c(OC)c1 | 4480 | > 50 | 1170
CCCCCCCCS(=O)(=O)NCc1ccc(O)c(OC)c1 | 1320 | > 50 | 2900
CCCCCCCC/C(S)=N\Cc1ccc(O)c(OC)c1 | 280 | 38 | 1230
CCCCCCCCNC(=O)Cc1ccc(O)c(OC)c1 | 300 | 9.2 | 
CCCCCCCC/N=C(/S)Nc1ccc(O)c(OC)c1 | 2570 | > 50 | 2560
CCCCCCCCC(=O)OCc1ccc(O)c(OC)c1 | 14200 |  | 
CCCCCCCC/N=C(/NC#N)NCc1ccc(O)c(OC)c1 | 3280 | > 50 | 6350
CCCCCCCC/N=C(/S)N(C)Cc1ccc(O)c(OC)c1 | > 100000 |  | 
COc1cc(CNC(=O)CCCC/C=C/C(C)C)ccc1O [CAPSAICIN] |  | 15 | 
CCCCCCCCC(=O)NCc1ccc(O)c(OC)c1 [NONIVAMIDE] |  | 5 | 

The next lines start with results.

EC50 [1] [nM] | SMILES | ED50 [2] [µmol/kg] | EC50 [3] [nM]
> 100000 | CCCCCCCCC(=O)NC(=S)NCc1ccc(O)c(OC)c1 |  | 
> 100000 | CCCCCCCCN/C(NCc1ccc(O)c(OC)c1)=[S+]\C.[I-] |  | 
1170 | CCCCCCCCSC(=O)Cc1ccc(O)c(OC)c1 |  | 
> 100000 | CCCCCCCCNC(=O)/C=C/c1ccc(O)c(OC)c1 |  | 
2130 | CCCCCCCCC(=O)CCc1ccc(O)c(OC)c1 |  | 
1160 | CCCCCCCCNC(=O)C(O)c1ccc(O)c(OC)c1 (stereo unspecified) |  | 
670 | CCCCCCCCOC(=O)Cc1ccc(O)c(OC)c1 |  | 
> 100000 | CCCCCCCCN/C(=C\[N+](=O)[O-])NCc1ccc(O)c(OC)c1 |  | 
18300 | CCCCCCCCC(=O)NCCc1ccc(O)c(OC)c1 |  | 
360 | CCCCCCCCNC(=O)NCc1ccc(O)c(OC)c1 |  | 
3780 | CCCCCCCCCC(=O)Cc1ccc(O)c(OC)c1 |  | 
> 100000 | CCCCCCCCC(=O)N(C)Cc1ccc(O)c(OC)c1 |  | 
2320 | CCCCCCCCNC(=O)CCc1ccc(O)c(OC)c1 |  | 
> 100000 | CCCCCCCCCCCc1ccc(O)c(OC)c1 |  | 
> 100000 | CCCCCCCCC(=O)/C=C/c1ccc(O)c(OC)c1 |  | 
6290 | CCCCCCCCN(C)C(=O)Cc1ccc(O)c(OC)c1 |  | 
17900 | CCCCCCCCNC(=O)/C=C\c1ccc(O)c(OC)c1 |  | 
> 100000 | CCCCCCCCNC(=O)c1ccc(O)c(OC)c1 |  | 
